Measurements reported in the supplement of paper PMC10307832.

Tests used:
Experiment in all cases: relative viability (nuclei count vs DMSO), 5 days (fraction); higher = more cells survive
XMD14-99 + Olaparib = compound: CN1CCN(CC1)C2=CC(=C(C=C2)NC3=NC(=C(S3)C(=O)C4=C(C=CC=C4Cl)Cl)N)OC [XMD14-99] + O=C(c1cc(Cc2n[nH]c(=O)c3ccccc23)ccc1F)N1CCN(C(=O)C2CC2)CC1 [Olaparib] (partner 8 µM)
Outline: (§1)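 Each reported value is a median over duplicate plates. It expresses relative viability: treated-well nuclei count divided by vehicle-well nuclei count. Lung cancer cell lines in 1536-well plates were dosed by pin tool a day after seeding, alone with one drug or with a fixed anchor-drug dose plus five library-drug doses (not always all listed) in √10 steps, and nuclei were counted after 5 days.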

AZD1208 + Trametinib = compound: N[C@@H]1CCCN(c2c(/C=C3\SC(=O)NC3=O)cccc2-c2ccccc2)C1 [AZD1208] + CC(=O)Nc1cccc(-n2c(=O)n(C3CC3)c(=O)c3c(Nc4ccc(I)cc4F)n(C)c(=O)c(C)c32)c1 [Trametinib] (partner 0.02 µM)
Outline: as §1

AZD1208 + OSI-027 = compound: N[C@@H]1CCCN(c2c(/C=C3\SC(=O)NC3=O)cccc2-c2ccccc2)C1 [AZD1208] + COc1cccc2cc(-c3nc([C@H]4CC[C@H](C(=O)O)CC4)n4ncnc(N)c34)[nH]c12 [OSI-027] (partner 0.5 µM)
Outline: as §1

AZD1208 + Crizotinib = compound: N[C@@H]1CCCN(c2c(/C=C3\SC(=O)NC3=O)cccc2-c2ccccc2)C1 [AZD1208] + C[C@@H](Oc1cc(-c2cnn(C3CCNCC3)c2)cnc1N)c1c(Cl)ccc(F)c1Cl [Crizotinib] (partner 1 µM)
Outline: as §1

Cell Line	relative viability (XMD14-99 + Olaparib; first compound 0.08 µM)	relative viability (XMD14-99 + Olaparib; first compound 0.8 µM)	relative viability (XMD14-99 + Olaparib; first compound 2.53 µM)	relative viability (XMD14-99 + Olaparib; first compound 8 µM)	relative viability (AZD1208 + Trametinib; first compound 0.08 µM)	relative viability (AZD1208 + Trametinib; first compound 0.253 µM)	relative viability (AZD1208 + Trametinib; first compound 0.8 µM)	relative viability (AZD1208 + Trametinib; first compound 2.53 µM)	relative viability (AZD1208 + Trametinib; first compound 8 µM)	relative viability (AZD1208 + OSI-027; first compound 0.08 µM)	relative viability (AZD1208 + OSI-027; first compound 0.253 µM)	relative viability (AZD1208 + OSI-027; first compound 0.8 µM)	relative viability (AZD1208 + OSI-027; first compound 2.53 µM)	relative viability (AZD1208 + OSI-027; first compound 8 µM)	relative viability (AZD1208 + Crizotinib; first compound 0.08 µM)	relative viability (AZD1208 + Crizotinib; first compound 0.253 µM)	relative viability (AZD1208 + Crizotinib; first compound 0.8 µM)	relative viability (AZD1208 + Crizotinib; first compound 2.53 µM)	relative viability (AZD1208 + Crizotinib; first compound 8 µM)
HOP-62	0.536	0.634	0.501	0.312	0.372	0.381	0.379	0.377	0.322	0.863	0.965	0.726	0.642	0.632	0.991	0.869	0.895	0.883	0.969
LOU-NH91	0.904	0.919	0.891	0.692	0.785	0.786	0.759	0.825	0.728	0.737	0.577	0.631	0.694	0.619	0.728	0.728	0.727	0.693	0.721
ChaGo-K-1	0.473	0.438	0.403	0.292	0.884	0.905	0.78	0.88	0.806	0.579	0.546	0.49	0.421	0.402	1.1	1.28	0.99	1.16	0.9
NCI-H23	0.313	0.325	0.277	0.225	0.361	0.301	0.272	0.347	0.303	0.576	0.705	0.523	0.37	0.382	0.377	0.467	0.372	0.426	0.34
PC-3 [JPC-3]	1.09	1.1	1.16	0.733	0.732	0.825	0.688	0.711	0.723	0.8	0.698	0.762	0.702	0.628	1.01	0.996	1.04	1.05	0.982
NCI-H1437	0.615	0.622	0.56	0.464	0.423	0.597	0.358	0.419	0.408	0.821	1.07	0.837	0.774	0.764	0.979	0.961	1.03	0.998	1.04
NCI-H520	0.344	0.381	0.32	0.196	0.633	0.678	0.279	0.55	0.502	0.207	0.258	0.189	0.179	0.188	0.77	0.833	0.711	0.582	0.439
NCI-H1666	0.81	0.73	0.737	0.763	0.764	0.907	0.687	0.667	0.725	0.779	0.829	0.682	0.826	0.775	1.06	0.934	0.837	0.905	1.03
NCI-H1651	0.187	0.203	0.147	0.157	0.87	0.81	–	0.742	0.746	0.679	0.878	0.534	0.595	0.503	0.899	0.918	0.83	0.835	0.81
NCI-H1755	0.888	0.815	0.835	0.622	0.755	0.841	0.779	0.705	0.647	0.69	0.617	0.582	0.59	0.437	0.863	0.939	0.8	0.777	0.728
NCI-H727	0.737	0.68	0.712	0.523	0.413	0.325	0.352	0.395	0.39	0.576	0.561	0.414	0.468	0.548	0.795	0.863	0.819	0.789	0.703
HARA	0.816	0.999	0.589	0.491	0.551	0.743	0.761	0.542	0.35	0.467	0.497	0.468	0.433	0.277	0.938	1.02	1.02	1.02	0.943
NCI-H647	0.512	0.561	0.746	0.38	0.383	0.503	0.567	0.471	0.358	0.665	0.885	0.508	0.515	0.47	0.953	1.09	0.894	0.906	0.757
NCI-H2347	0.557	0.568	0.601	0.446	0.316	0.27	0.257	0.264	0.26	0.321	0.344	0.329	0.302	0.35	0.626	0.626	0.582	0.648	0.588
LCLC-97TM1	0.415	0.351	0.35	0.209	0.21	0.172	0.137	0.183	0.162	0.456	0.476	0.344	0.354	0.29	0.464	0.515	–	0.318	0.294
EPLC-272H	0.711	0.809	0.802	0.422	0.312	0.268	0.279	0.254	0.315	0.255	0.289	0.276	0.247	0.281	0.93	1	0.792	0.849	0.726
NCI-H1915	0.239	0.246	0.268	0.234	0.271	0.288	0.247	0.277	0.232	0.571	0.524	0.569	0.428	0.451	0.847	0.982	0.865	0.885	0.845
